Assay results taken from patent publication US11479611B2 (China Medical University Hospital, priority 2019, dated 2022).

Columns and labels:
Format in all cases: cell-based
[1] = tested on: human ovarian cancer cell line SKOV3; experiment: tumor cell death (cytotoxicity), Annexin V-FITC/PI flow cytometry; conditions: treated alone; carboplatin 20 μM or 1×10^5 parental cells
Experimental: (§1) The cells are subsequently incubated for 24 hours. Each type of the tumor cells is divided into six groups. In a control, the tumor cells are untreated. In a group 1, the tumor cells are treated with the chemotherapy drug. In a group 2, the tumor cells are treated with the parental primary NK cell. In a group 3, the tumor cells are treated with the parental primary NK cell and the chemotherapy drug. In the groups 2 and 3, the number of the parental primary NK cell treated is 1×10^5 cells. In a group 4, the tumor cells are treated with the Example 1. In a group 5, the tumor cells are treated with the Example 1 and the chemotherapy drug. […] The treated cells are stained with Annexin V-FITC and propidium iodide (PI), and the apoptosis and the death of the tumor cells are detected by the flow cytometry. The sum of the percentage of cells stained with Annexin V-FITC and/or PI (that is the percentage of cells in the first quadrant, the second quadrant, and the fourth quadrant of the bivariate flow cytometry scatter plot) are calculated to obtain the cytotoxicity. The results of the cytotoxicity are counted after the three independent trials in each group.
(§2) The cells are subsequently incubated for 24 hours. […] The treated cells are stained with Annexin V-FITC and propidium iodide (PI), and the apoptosis and the death of the tumor cells are detected by the flow cytometry. […]

[2] = tested on: HLA-G on the plasma membrane of the human ovarian cancer cell line SKOV3; experiment: HLA-G expression level of tumor cells by flow cytometry; conditions: 20 μM, 48 hours, compared to untreated control, p<0.001
[3] = tested on: human breast cancer cell line MDA-MB-231; experiment: tumor cell death (cytotoxicity), Annexin V-FITC/PI flow cytometry; conditions: treated alone; doxorubicin 200 nM or 1×10^5 parental cells
Experimental: (§3) The cells are subsequently incubated for 24 hours. […] In a control, the tumor cells are untreated.
as §3

[4] = tested on: HLA-G on the plasma membrane of the human breast cancer cell line MDA-MB-231; experiment: HLA-G expression level of tumor cells by flow cytometry; conditions: 200 nM, 48 hours, compared to untreated control, p<0.001
Experimental: First, the human breast cancer cell line MDA-MB-231, the human malignant brain tumor cell line DBTRG, the human pancreatic cancer cell line AsPC1 and the human ovarian cancer cell line SKOV3 are seeded in a 6-well plate at a density of 2×10^5 cells/well. The cells are subsequently incubated for 24 hours. Each type of the tumor cells is divided into two groups. In a control, the tumor cells are untreated. In an experiment group, the tumor cells are treated with the chemotherapy drug for 48 hours. […] Then, the HLA-G expression level of the tumor cells are detected by flow cytometry.

[5] = tested on: human pancreatic cancer cell line AsPC1; experiment: tumor cell death (cytotoxicity), Annexin V-FITC/PI flow cytometry; conditions: treated alone; gemcitabine 20 μM or 1×10^5 parental cells
Experimental: as §1, §2

With N.N.O=C([O-])C1(C(=O)[O-])CCC1.[Pt+2] [carboplatin] the “death rate of SKOV3 compared to the control (in words)” value [1] was “increased, but there is no statistically significant differences compared to the control” and the “expression of HLA-G on the plasma membrane of SKOV3” value [2] was “increase the expression of HLA-G”.
COc1cccc2c1C(=O)c1c(O)c3c(c(O)c1C2=O)C[C@@](O)(C(=O)CO)C[C@@H]3O[C@H]1C[C@H](N)[C@H](O)[C@H](C)O1 [doxorubicin] was tested, and the “death rate of MDA-MB-231 compared to the control (in words)” value [3] was “increased, but there is no statistically significant difference compared to the control” and the “expression of HLA-G on the plasma membrane of MDA-MB-231” value [4] was “increase the expression of HLA-G”.
In the case of Nc1ccn([C@@H]2O[C@H](CO)[C@@H](O)C2(F)F)c(=O)n1 [gemcitabine], the “death rate of AsPC1 compared to the control (in words)” value [5] is reported as “increased, but there is no statistically significant difference compared to the control”.
